According to patent publication US7897769B2, “Intermediates for fluorinated dihydrotetrabenazine ether imaging agents and probes” (General Electric Company, priority 2007, dated 2011):

Target: T1, VMAT-2 (Rattus norvegicus, UniProt Q01827)
T1 construct: Novascreen Biosciences Corporation (contract assay provider) protocol Cat. No. 100-0751
Test: VMAT-2 binding affinity measurement (Novascreen protocol Cat. No. 100-0751)
Conditions: for Ki: VMAT-2 binding affinity; for binding affinity for VMAT-2 (in words): relative to a DTBZ control
Description: VMAT-2 binding affinity measurements were carried out by Novascreen Biosciences Corporation (Hanover, Md., USA) using protocol Cat. No. 100-0751. Novascreen, Inc. is a commercial provider of biological assays for the pharmaceutical industry.

T1 sequence (Q01827 whole entry): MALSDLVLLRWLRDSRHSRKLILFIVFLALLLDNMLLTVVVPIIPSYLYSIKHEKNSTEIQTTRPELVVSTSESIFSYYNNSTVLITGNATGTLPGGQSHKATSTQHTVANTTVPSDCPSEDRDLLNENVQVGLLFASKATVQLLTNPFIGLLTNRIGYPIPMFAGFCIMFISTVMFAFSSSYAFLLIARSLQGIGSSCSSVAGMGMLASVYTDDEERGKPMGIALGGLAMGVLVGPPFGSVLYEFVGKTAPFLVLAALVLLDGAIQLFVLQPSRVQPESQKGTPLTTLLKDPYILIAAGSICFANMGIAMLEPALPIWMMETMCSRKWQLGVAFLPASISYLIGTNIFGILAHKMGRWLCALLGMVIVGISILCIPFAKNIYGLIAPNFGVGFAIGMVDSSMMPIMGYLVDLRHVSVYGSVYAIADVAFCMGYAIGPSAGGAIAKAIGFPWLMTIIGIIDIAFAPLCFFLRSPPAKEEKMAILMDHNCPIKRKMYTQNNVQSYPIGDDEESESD

COc1cc2c(cc1OC)[C@H]1C[C@@H](OCCF)[C@H](CC(C)C)CN1CC2 [Compound 22]
Ki: 3.2 nM | binding affinity for VMAT-2 (in words): very high binding affinity

COc1cc2c(cc1OC)[C@H]1C[C@@H](OCCCF)[C@H](CC(C)C)CN1CC2 [Compound 23]
Ki: 6.4 nM | binding affinity for VMAT-2 (in words): very high binding affinity
